Structures are written as SMILES.

This is an account of results in the SangsterLogP compilation.

A short description of this data set: method code SF-HPLC, from Marrel, C.; Boss, G.; Van, H.; Testa, B.; Cooper, D.; Jenner, P.; Marsden, C. (1985). L-DOPA esters as potential prodrugs. Part. I. Physicochemical properties. Eur J Med Chem, 20(5)459-465. Conditions: for logD: pH 7.4.

By logD is commonly meant lipophilicity at a set pH, counting ionised and neutral species. `N[C@@H](Cc1ccc(O)c(O)c1)C(=O)OCCOc1ccccc1`: the logD turned out to be 1.35. In general, logP refers to a log measure of how a compound divides between an organic and an aqueous phase. Consider `COCC(C)OC(=O)[C@@H](N)Cc1ccc(O)c(O)c1` (stereo not given in full), for which the logP came out at 0.08.

For the compound `N[C@@H](Cc1ccc(O)c(O)c1)C(=O)OCC1CCCCO1` (stereo not given in full), the lipophilicity (logP) is 0.47. Turning to `CC(O)COC(=O)[C@@H](N)Cc1ccc(O)c(O)c1` (stereo not given in full), the logP is -0.49. As to `CCOC(=O)[C@@H](N)Cc1ccc(O)c(O)c1`, the logD was 0.01. On the same count and under the same terms, next, `N[C@@H](Cc1ccc(O)c(O)c1)C(=O)OC1CCCCC1`: 1.53; `N[C@@H](Cc1ccc(O)c(O)c1)C(=O)OCCc1ccc(Cl)cc1`: 2.12; `N[C@@H](Cc1ccc(O)c(O)c1)C(=O)OCCc1ccccc1`: 1.57. On the same count and under the same terms, next, `CCCOC(=O)[C@@H](N)Cc1ccc(O)c(O)c1`: 0.55; `COc1ccc(CCOC(=O)[C@@H](N)Cc2ccc(O)c(O)c2)cc1`: 1.5.
